From patent US6248905A, “Acyl derivatives of glycosyl-L-ascorbic acid” (priority 1998, dated 2001)
Values belong to the compound of their own block, whether it stands above or below them.

Tests used:
[1] = Dynamic test, intravenous administration to rats (blood level); type: in vivo, Male Wister/ST rats
Description: Male Wister/ST rats, 12-14-week-old, were fasted for 16 hours and, under an anesthetic, 200-μl blood was taken from their hearts using a syringe injected with a physiological saline containing 600 units/ml heparin. […] Just after the administration and after a prescribed period of time from the administration, blood was taken from the rats similarly as above at a prescribed time interval, and the blood taken was admixed with an adequate amount of heparin and instantly centrifuged at 4° C. to collect supernatants.

[2] = Radical-entrapping ability (DPPH oxidation-inhibitory activity); type: biochemical; settings: for EC50: DPPH, ambient temperature, 20 min, read-out: EC50 (50% oxidation-inhibitory-concentration); for Oxidation inhibitory effect (%): sample concentration 10^-4 M
Description: In parallel, as a control, a system using a 60 v/v % aqueous ethanol solution was provided in place of the test samples, and treated similarly as in the case of the acyl derivatives. The percentage (%) of the absorbance of the test samples to that of the control was regarded as an oxidation-inhibitory activity, and the activity was used as an index of radical-entrapping ability. The 50% oxidation-inhibitory-concentration (EC50) was calculated based on a logarithmic value of a concentration of the test sample used and on an oxidation-inhibitory ability shown by the sample at the concentration.

[3] = test system: guinea pigs with scorbutus; test: Anti-scorbutus test; type: in vivo, male Hurtley's guinea pigs; settings: for days needed to recover maximum body weight before initiating the administration: oral, 56.80 μmol/head/shot once every morning
Description: In accordance with the method as reported in Journal of Pharmacobio-Dynamics, Vol. 13, pp. 688-695 (1990) by the present inventors, male Hurtley's guinea pigs, 4-week-old, were bred under free intake of water and vitamin C-defective food, commercialized by Oriental Yeast Co., Ltd., Tokyo, Japan, while the guinea pigs were weighed every morning at a prescribed time as an index of the symptom of anti-scorbutus disease. […] In parallel, one group as a control, in which guinea pigs were administered with only a fresh preparation of the same water free of the specimens, was provided and treated similarly as in the groups with the specimens.

[4] = physchem; settings: phosphate buffer, pH 7
Description: To the solution was added 9.8 ml of 100 mM phosphate buffered aqueous solution (pH 7.0), and the aqueous solution was sterilized, and then incubated at 37° C. or 60° C. while the aqueous solution was sampled at prescribed times, followed by freezing the samples instantly at -30° C. for storing. Thereafter, the aqueous solution stored by freezing was thawed, analyzed on HPLC, and determined for the remaining content of the acyl derivatives based on the absorbance at a wavelength of 254 nm.

[5] = test system: artificial skin (TESTSKIN, human-skin-restructuring-model); test: Skin permeation test using TESTSKIN; settings: 10 mM, 37° C., peak levels
Description: According to the specification affixed to the product, a medium for assay was injected to a plate for assay in a volume of 1.2 ml/well, and a transferring well, attached with an artificial skin, was loaded on the bottom of the plate, and attached with an assay ring applied with a silicone grease in the middle of the transferring well.

SMILES: O=C1O[C@H]([C@@H](O)CO)C(O)=C1O[C@H]1O[C@H](CO)[C@@H](O)[C@H](O)[C@H]1O [AA 2G, 2-O-α-D-Monoglucopyranosyl-L-ascorbic acid]
EC50 [2]: 90.3 µM | Oxidation inhibitory effect (%) [2]: 55.4% | internal bleeding caused by scorbutus ([3]; anatomic finding): no such an observation | blood level of alkaline phosphatase ([3]; blood): recovered almost to the normal level | level of L-ascorbic acid in the blood ([3]; blood, numeral data excluded): recovered nearly to a normal level | level of L-ascorbic acid in the liver ([3]; liver, numeral data excluded): recovered nearly to a normal level | days needed to recover maximum body weight before initiating the administration [3]: eight | degraded at 48 h [4]: 3.9% | degraded at 336 h [4]: 1.6%

SMILES: CCCC(=O)OC[C@H](O)[C@H]1OC(=O)C(O[C@H]2O[C@H](CO)[C@@H](O)[C@H](O)[C@H]2O)=C1O [Example 6-Buty-AA-2G, 6-O-butyryl-2-O-α-D-monoglucopyranosyl-L-ascorbic acid]
EC50 [2]: 99.8 µM | Oxidation inhibitory effect (%) [2]: 50.1%

SMILES: O=C1O[C@H]([C@@H](O)CO)C(O)=C1O [AsA, L-Ascorbic acid]
EC50 [2]: 46.4 µM | Oxidation inhibitory effect (%) [2]: 93.7% | degraded at 12 h [4]: 75.9% | degraded at 72 h [4]: 68.3%

SMILES: CCCCCC(=O)OC[C@H](O)[C@H]1OC(=O)C(O[C@H]2O[C@H](CO)[C@@H](O)[C@H](O)[C@H]2O)=C1O [Example 6-Hexa-AA-2G, 2-O-α-D-monoglucopyranosyl-6-O-hexanoyl-L-ascorbic acid]
EC50 [2]: 91 µM | Oxidation inhibitory effect (%) [2]: 55.1%

SMILES: CCCCCCCCCC(=O)OC[C@H](O)[C@H]1OC(=O)C(O[C@H]2O[C@H](CO)[C@@H](O)[C@H](O)[C@H]2O)=C1O [Example 6-Deca-AA-2G, 6-O-decanoyl-2-O-α-D-monoglucopyranosyl-L-ascorbic acid]
EC50 [2]: 73 µM | Oxidation inhibitory effect (%) [2]: 67.5%

Second part, led by results:

blood level of 2-O-α-D-monoglucopyranosyl-L-ascorbic acid after its maximum, when administered with 6-Octa-AA-2G ([1]; metabolite, after maximum): undetectable level | concentration at 0.25 h ([1]; rat, blood, 15 min after administration, read-out: blood level of 6-Octa-AA-2G): 38.2 µM | concentration at 2 min ([1]; rat, blood, two minutes after administration, read-out: blood level of 6-Octa-AA-2G): 525 µM | blood level of L-ascorbic acid compared with 2-O-α-D-monoglucopyranosyl-L-ascorbic acid ([1]; throughout experiment): exceeded | EC50 [2]: 82.7 µM
SMILES: CCCCCCCC(=O)OC[C@H](O)[C@H]1OC(=O)C(O[C@H]2O[C@H](CO)[C@@H](O)[C@H](O)[C@H]2O)=C1O [Example 6-Octa-AA-2G, 2-O-α-D-monoglucopyranosyl-6-O-octanoyl-L-ascorbic acid]
Oxidation inhibitory effect (%) [2]: 60.4% | days needed to recover maximum body weight before initiating the administration [3]: six

EC50 [2]: 63.2 µM | skin permeability (peak level) relative to L-ascorbic acid [5]: 7 times
SMILES: CCCCCCCCCCCC(=O)OC[C@H](O)[C@H]1OC(=O)C(O[C@H]2O[C@H](CO)[C@@H](O)[C@H](O)[C@H]2O)=C1O [Example 6-Dode-AA-2G, 6-O-dodecanoyl-2-O-α-D-monoglucopyranosyl-L-ascorbic acid]
Oxidation inhibitory effect (%) [2]: 78.3%
